According to US12397010B2, “Treatment of chronic headaches” (Saint Louis University, priority 2019, dated 2025):

Tested on: trigeminal neurons that innervate the dural vasculature
Test: in vivo electrophysiological recordings from single unit dural-responsive trigeminal neurons (preclinical model of migraine)
Conditions: rat; for normal cutaneous facial noxious and innocuous somatosensory responses: same neurons, extracranial somatosensory processing; for ongoing neuronal firing of central trigeminal neurons / response to pain-producing stimulation of the dura mater of central trigeminal neurons: intravenous administration, P<0.05 vs. baseline; for ongoing neuronal firing of central trigeminal neurons: FIGS. 1A & 1E; for response to pain-producing stimulation of the dura mater of central trigeminal neurons: FIGS. 1B & 1F
Source text: FIGS. 1A-1H depict a preclinical model of migraine manipulates the pain responsive sensory neurons that innervate the dura mater and its associated blood vessels. The cell bodies of these sensory neurons reside in the trigeminal ganglia. Measuring dural-responsive trigeminal neuronal responses in animals has proven to be extremely predictive of therapeutic efficacy for abortive migraine treatments, such as triptans, and it also translates to migraine preventives. Here we show in vivo electrophysiological recordings in a rat from single unit trigeminal neurons that innervate the dural vasculature. […] Intravenous administration of the migraine abortive, naratriptan (FIGS. 1A-1D) and the migraine preventive, amitriptyline (FIGS. 1E-1H), inhibited ongoing neuronal firing (FIGS. 1A & 1E) and the response to pain-producing stimulation of the dura mater (FIGS. 1B & 1F) of central trigeminal neurons. […] In the same neurons, naratriptan and MRS5980 had no effect on normal cutaneous facial noxious and innocuous somatosensory responses. Amitriptyline, however did affect this normal somatosensory processing. * P<0.05 vs. baseline.

Compound: CNC(=O)[C@@]12C[C@@H]1[C@@H](n1cnc3c(NC)nc(C#Cc4ccc(Cl)s4)nc31)[C@H](O)[C@@H]2O [MRS5980]
- inhibiting neuronal responses (compared with naratriptan and amitriptyline) (dural-responsive trigeminal neurons): equally efficacious
- normal cutaneous facial noxious and innocuous somatosensory responses: no effect

Compound: CN(C)CCC=C1c2ccccc2CCc2ccccc21 [amitriptyline]
- ongoing neuronal firing of central trigeminal neurons: inhibited
- response to pain-producing stimulation of the dura mater of central trigeminal neurons: inhibited
- normal cutaneous facial noxious and innocuous somatosensory responses: did affect

Compound: CNS(=O)(=O)CCc1ccc2[nH]cc(C3CCN(C)CC3)c2c1 [naratriptan]
- ongoing neuronal firing of central trigeminal neurons: inhibited
- response to pain-producing stimulation of the dura mater of central trigeminal neurons: inhibited
- normal cutaneous facial noxious and innocuous somatosensory responses: no effect
